Assays:
Type in all cases: cell-based
[1] = tested on: IL-17A; assay: IL-17 release from differentiated primary human T-cells (IL-17A HTRF assay); settings: primary human CD4+ T cells differentiated into Th17 cells, 45-hour incubation, IL-17A in supernatant; read-out: hIL17 IC50
Procedure: C. IL-17 Release from Differentiated Primary Human T-Cells and Cell Viability
Primary human cryopreserved CD4+ T Cells (Lonza) were thawed according to the manufacturer's recommendations and plated either in Lymphocyte Growth Medium-3 (LGM-3) or X-VIVO 20 media (Lonza) in 96-well tissue culture plates at a density of ˜2×10^5 cells per well, and allowed to recover for approximately 4 hours at 37° C. with 5% CO2 in a humidified atmosphere. After the recovery step, DMSO (vehicle) or test compound at doses ranging from 2 to 500 nM or 4 to 1000 nM in a three-fold dilution series was added to the cells. Three replicate wells were tested for each treatment condition. Final DMSO concentration in each well was 0.1%. Immediately after treatment, CD4+ T cells were activated by adding Dynabeads Human T-Activator CD3/CD28 (Life Technologies; bead-to-cell ratio of 1:2.5) and differentiated into Th17 cells by adding a mixture of the following cytokines: transforming growth factor-β (TGF-β, 5 ng/mL), IL-6 (20 ng/mL), IL-23 (20 ng/mL), and IL-1β (10 ng/mL). Undifferentiated control cells received only cytokine IL-2 (50 ng/mL). All human recombinant cytokines were purchased from R&D Systems. Following a 45-hour incubation at 37° C. with 5% CO2 in a humidified atmosphere, the plates were centrifuged for 3 minutes at 250×g, and half of the supernatant was transferred to anew plate to be used in the IL-17A assay (see below). Cell viability was assessed in the original plate using the CyQuant Direct Assay (Life Technologies). CyQuant reagent (an amount equal to 10% of remaining media volume) was added to the wells, and the plates were then incubated at 37° C. for 75 min. Fluorescence was read on a SpectraMax M2e spectrophotometer at 480 nm (excitation) and 535 nm (emission) wavelengths. CyQuant values from test compound samples were normalized to those from DMSO-treated samples. The concentration of IL-17A in the supernatant was measured using the Homogeneous Time-Resolved Fluorescence (HTRF) assay (Cisbio Bioassays) according to the manufacturer's protocol. The assay was performed at room temperature in low volume, solid white 384-well plates (Greiner Bio-One). Samples and standards (serially-diluted human recombinant IL-17A (0 to 5,000 pg/mL concentration range; Cisbio Bioassays) were incubated with the anti-human IL-17A antibody conjugates (the HTRF donor and acceptor pair) for 16 hours and fluorescence was measured using a Pherastar FS microplate reader (BMG Labtech) in the HTRF mode (excitation at 337 nm and emission at 665 nm and 620 nm). IL-17A levels were assessed in duplicate aliquots of supernatant from each well resulting in a total of six readings per test condition. The 665 nm/620 nm signal ratio was calculated and the concentration of IL-17A in each sample was determined by interpolation from the standard curve. The amount of IL-17A from test compound treated samples were normalized to that of the vehicle-treated samples, set to 100%. Data were analyzed using GraphPad Prism (GraphPad Software, La Jolla California USA). Concentrations of test compound were transformed by taking the logarithm of each concentration used. The IC50 values for compound-mediated reduction in IL-17A levels and cell viability were determined by non-linear regression analysis using the log(inhibitor) vs. normalized response with variable slope equation. Inhibition that is closely correlated with reduced viability is considered to be non-specific.

[2] = tested on: Nrf2 transcription factor; assay: AREc32 luciferase reporter assay; settings: Homo sapiens; AREc32 cells, 19 hours; concentration required to increase GST ARE luciferase reporter activity by 2-fold; read-out: NRF2 ARE 2-Fold (EC2×)
Excerpt: A. AREc32 Luciferase Reporter Assay
The AREc32 luciferase reporter assay allows for quantitative assessment of the endogenous activity of the Nrt2 transcription factor in cultured mammalian cells. AREc32 cells are derived from MCF-7 human breast carcinoma cells that were stably transfected with a reporter construct that contains the firefly luciferase gene located downstream of eight copies of the rat GSTA2 antioxidant response element (ARE) sequence (Wang et al., 2006; Concept Life Sciences Integrated Discovery and Development Services Ltd (CLSIDDS)). Active Nrf2 binds to the ARE sequences and increases expression of the firefly luciferase gene. To assess the Nrf2-activating potential of the test compounds, AREc32 cells were plated in black […] plates at a density of 20,000 cells per well in triplicate in DMEM+10% FBS+0.8 mg/mL Geneticin and incubated at 37° C. with 5% CO2 in a humidified atmosphere. The next day, cells were treated with DMSO (vehicle) or test compound (concentration ranges of 0.4-200 nM or 3.9-2000 nM) for 19 hours. Luciferase activity was determined using the ONE-Glo Luciferase assay (Promega). The luminescence signal was measured on a BMG Pherastar microplate reader. The mean luminescence value from test compound-treated wells was normalized to that from DMSO-treated wells and was represented as fold-induction. Data were analyzed using GraphPad Prism version 6.00 for Windows, GraphPad Software, La Jolla Calif. USA. A non-linear regression curve with log (agonist) vs. response using a variable slope was used to fit the data. Where applicable, a maximum threshold value of 50-fold over DMSO was set. EC2× values were interpolated from the curve. EC2× corresponds to the concentration of test compound required to increase GST ARE Luciferase reporter activity by 2-fold.

[3] = target: T1, Human RAR-related Orphan Receptor Gamma (RORγ) (Homo sapiens, UniProt P51449); assay: RORγ assay (GAL4-RORγ hybrid luciferase reporter, Indigo Biosciences); settings: inverse-agonist activity, GAL4-RORγ reporter cells, 23 hours
T1 sequence (P51449 269-508 limits assumed): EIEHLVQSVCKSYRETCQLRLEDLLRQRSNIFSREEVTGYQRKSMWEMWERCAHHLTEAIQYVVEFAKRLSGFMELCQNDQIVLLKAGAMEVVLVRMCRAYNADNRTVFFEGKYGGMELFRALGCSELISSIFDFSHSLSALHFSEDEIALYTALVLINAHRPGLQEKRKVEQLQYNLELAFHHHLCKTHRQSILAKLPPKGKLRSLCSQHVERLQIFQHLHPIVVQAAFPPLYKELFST
Excerpt: B. RORγ Assay and Cell Viability
The RORγ assay system was purchased from Indigo Biosciences. This nuclear receptor assay utilizes a human cell line that has been engineered to express a hybrid form of the Human RAR-related Orphan Receptor Gamma (RORγ) at high levels. The N-terminal DNA binding domain (DBD) of the native RORγ receptor was substituted with the yeast GAL4-DBD to generate the GAL4-RORγ hybrid nuclear receptor. The reporter cell line is transfected with a plasmid that encodes the beetle luciferase gene under the control of the GAL4 upstream activating sequence (UAS). GAL4 binds to the UAS and increases transcription of downstream target genes. The GAL4-RORγ hybrid is constitutively active; therefore, the principle application of this reporter assay system is to screen test compounds to quantify inverse-agonist activities against human RORγ. Because the ligand binding domain (LBD) of RORγ is identical to the LBD of RORγt, this assay is an accurate surrogate for evaluating activity of experimental ligands against RORγt. To assess the RORγ inverse-agonist activity of the test compounds, reporter cells were plated in white 96-well plates in triplicate and were treated with DMSO (vehicle) or test compound (concentration ranges of 7.8-2000 nM) at 37° C. with 5% CO2 in a humidified atmosphere for 23 hours. After this incubation, luciferin was added to the wells and luciferase activity was determined by measuring the luminescence signal using a BMG Pherastar microplate reader. Viability was determined using the Live Cell Multiplex Assay (Indigo Biosciences). Values from test compound samples were normalized to those from DMSO-treated samples. Data were analyzed using GraphPad Prism version 6.00 for Windows (GraphPad Software, La Jolla Calif. USA). A non-linear regression analysis with log (inhibitor) vs. normalized response using a variable slope was applied to fit the data and determine the IC50 values for inhibition of RORγ and cell viability. Inhibition that is closely correlated with reduced viability is considered to be non-specific.

IC50 [1] [nM] | IC50 [3] [nM] | Compound | EC (2-fold) [2] [µM]
65 | 174 | C[C@H]1C(=O)C(C#N)=C[C@@]2(C)c3nn(C4CCCCC4)c(-c4ccccc4)c3CC[C@H]12 [T1] | 1.45
83 | 98 | C[C@H]1C(=O)C(C#N)=C[C@@]2(C)c3c(c(-c4ccccc4)nn3C3CCCCC3)CC[C@H]12 [T2] | 0.66
92 | 276 | C[C@H]1C(=O)C(C#N)=C[C@@]2(C)c3c(c(-c4ccccc4)nn3CC(F)(F)F)CC[C@H]12 [T3] | 1.46
223 | 140 | C[C@H]1C(=O)C(C#N)=C[C@@]2(C)c3nn(Cc4ccccc4)c(-c4ccccc4)c3CC[C@H]12 [T4] | 0.914
119 | 136 | C[C@H]1C(=O)C(C#N)=C[C@@]2(C)c3c(c(-c4ccccc4)nn3Cc3ccccc3)CC[C@H]12 [T5] | 0.587
35 | 91 | C[C@H]1C(=O)C(C#N)=C[C@@]2(C)c3c(c(-c4ccccc4)nn3-c3ccc(C(F)(F)F)cc3)CC[C@H]12 [T6] | 0.242
170 | 158 | C[C@H]1C(=O)C(C#N)=C[C@@]2(C)c3c(c(-c4ccccc4)nn3-c3ccncc3)CC[C@H]12 [T7] | 0.265
73 | 81 | C[C@H]1C(=O)C(C#N)=C[C@@]2(C)c3c(c(-c4ccccc4)nn3-c3ccnc4ccccc34)CC[C@H]12 [T8] | 0.426
127 | 63 | C[C@H]1C(=O)C(C#N)=C[C@@]2(C)c3c(c(-c4ccccc4)nn3-c3ccccc3F)CC[C@H]12 [T9] | 0.122
78 | 88 | C[C@H]1C(=O)C(C#N)=C[C@@]2(C)c3c(c(-c4ccccc4)nn3-c3ccc(Cl)c(Cl)c3)CC[C@H]12 [T10] | 0.26
111 | 73 | C[C@H]1C(=O)C(C#N)=C[C@@]2(C)c3c(c(-c4ccccc4)nn3-c3ccccc3)CC[C@H]12 [T11] | 0.107
76 | 55 | Cc1ccc(-n2nc(-c3ccccc3)c3c2[C@]2(C)C=C(C#N)C(=O)[C@H](C)[C@H]2CC3)cc1 [T12] | 0.135
96 | 129 | C[C@H]1C(=O)C(C#N)=C[C@@]2(C)c3c(c(-c4ccccc4)nn3-c3ccc(Cl)cc3)CC[C@H]12 [T13] | 0.274
57 | 60 | COc1ccc(-n2nc(-c3ccccc3)c3c2[C@]2(C)C=C(C#N)C(=O)[C@H](C)[C@H]2CC3)cc1 [T14] | 0.147
94 | 77 | Cc1ccccc1-n1nc(-c2ccccc2)c2c1[C@]1(C)C=C(C#N)C(=O)[C@H](C)[C@H]1CC2 [T17] | 0.105
182 | 114 | Cc1ccccc1-n1nc2c(c1-c1ccccc1)CC[C@@H]1[C@@H](C)C(=O)C(C#N)=C[C@@]21C [T18] | 0.741
32 | 85 | C[C@H]1C(=O)C(C#N)=C[C@@]2(C)c3c(c(-c4ccccc4)nn3-c3ccc(OC(F)(F)F)cc3)CC[C@H]12 [T19] | 0.247
94 | 115 | C[C@H]1C(=O)C(C#N)=C[C@@]2(C)c3nn(-c4ccc(OC(F)(F)F)cc4)c(-c4ccccc4)c3CC[C@H]12 [T20] | 0.927
 | 470 | C[C@H]1C(=O)C(C#N)=C[C@@]2(C)c3c(c(-c4ccccc4)nn3C3CCS(=O)(=O)C3)CC[C@H]12 (some centres unmarked) [T29] | 0.837
 | 143 | C[C@H]1C(=O)C(C#N)=C[C@@]2(C)c3nn(C4CCS(=O)(=O)C4)c(-c4ccccc4)c3CC[C@H]12 (some centres unmarked) [T30] | 0.462
 | 89 | C[C@H]1C(=O)C(C#N)=C[C@@]2(C)c3c(c(-c4ccccc4)nn3-c3cccc(Br)c3)CC[C@H]12 [T33] | 0.29
 | > 2000 | C[C@H]1C(=O)C(C#N)=C[C@@]2(C)c3c(c(-c4ccccc4)nn3-c3ccc(C(=O)O)cc3)CC[C@H]12 [T52] | > 2
 | 284 | C[C@H]1C(=O)C(C#N)=C[C@@]2(C)c3c(c(-c4ccncn4)nn3-c3ccc(C4CC4)cn3)CC[C@H]12 [T62] | 0.691
 | 768 | C[C@H]1C(=O)C(C#N)=C[C@@]2(C)c3nc(-c4ccccc4)n(-c4nnn(C)n4)c3CC[C@H]12 [T111] | 0.59
 | 264 | C[C@H]1C(=O)C(C#N)=C[C@@]2(C)c3nc(-c4ccncc4)n(-c4ccccc4)c3CC[C@H]12 [T112] | 0.563
